Source: patent US7959956B2, “Method for treating diabetic complications” (Korea Institute of Oriental Medicine, Ltd., priority 2004, dated 2011)

Key:
[1] = system: production of advanced glycation endproducts (bovine serum albumin + sugar mixture); test: Inhibition of production of advanced glycation endproducts (BSA + fructose/glucose, fluorescence); assay type: biochemical
Description: As a protein source, bovine serum albumin (hereinafter, referred to as “BSA”; Sigma, USA) was used. BSA was dissolved in 50 mM phosphate buffer (pH 7.4) to a concentration of 10 mg/ml.
As a sugar source, a mixture of 0.1 M fructose and 0.1 M glucose was used.
This sugar mixture was added to the prepared BSA solution, for use in tests.
The herbal extract mixture prepared in Example 2 was dissolved in 15% Tween80, and this solution was added to the BSA-sugar mixture and cultured at 37° C. for 30 days. At this time, 0.02% sodium azide was used as an antibacterial agent.
As a control group, a culture consisting of BSA and the sugar mixture was cultured, and as blanks to the control and test groups, the materials for the test group and the materials for the control group were used after preparation without incubation.
In order to reduce errors to the lowest possible extent, 4 samples for each group were used. Just before culturing, the samples were filled with nitrogen gas (99.999% purity) in order to prevent them being contaminated. After 30 days, the content of advanced glycation endproducts in the culture media was analyzed. The advanced glycation endproducts are fluorescent, show a brown color, are crosslinkable, and have ligands which can be recognized by cellular membrane receptors. The amount of the advanced glycation endproducts with such properties was measured with a spectrophotometer (excitation at 350 nm and release at 450 nm) so as to determine the inhibition of production of the advanced glycation endproducts.
The inhibition (%) of production of advanced glycation endproducts was calculated according to the following equation: Inhibition (%) of production=100−[(fluorescent intensity of test group−fluorescent intensity of blank to test group)/(fluorescent intensity of control group−fluorescent intensity of blank to control group)]×100
The part (1) of this Example was repeated except that extract from each of Euphorbiae radix, gingered Magnolia bark, parched Puerariae radix and Glycyrrhizae radix was dissolved in 15% Tween80 and cultured for 90 days.
Magnolol was dissolved in distilled water at concentrations of 3.33 μg/ml, 6.66 μg/ml, 13.32 μg/ml and 26.6 μg/ml, and then cultured for 37° C. for 30 days in the same manner as in the above part (1).
aminoguanidine, a positive control group, was tested in the same manner as in the above part (1) except that aminoguanidine was dissolved in distilled water at selected concentrations and cultured for 30 days and 90 days.

[2] = system: streptozotocin diabetes-induced SD rats; test: Streptozotocin diabetic rats: body weight, feed and water intake; assay type: in vivo, rat
Description: Four-week-old SD male rats weighing 120-140 g were housed in cages at one animal for each cage and allowed for access to general solid food and water while adapting the animals to an animal room of this institute (the applicant).
(§1) The test animals were divided into the following four groups: (1) a normal group administered with carboxymethyl cellulose (NC+CMC); (2) a diabetes-induced group administered with carboxymethylcellulose (DC+CMC); (3) a diabetes-induced group administered with the herbal extract mixture (DC+HMP); (4) and a diabetes-induced group administered with a positive control (Eparlestat) (DC+S11). The diabetes-induced groups each consisted of 9-10 animals, and the normal group consisted of 5-6 animals. The body weights of the animals were similar between the test groups.
(§2) The test animals were adapted to the animal room and then fasted overnight. Streptozotocin was dissolved in 0.1 M citrate buffer (pH 4.5), and just then, injected into the abdominal cavities of the fasted animals at a dose of 60 mg/kg. At 2 days after administering the streptozotocin solution, tail vein blood was sampled from the animals and examined for blood glucose level. Rats having a blood glucose level of more than […] were determined to be diabetes-induced rats.
To examine a therapeutic effect against chronic diabetic complications, the rats was continued to maintain in diabetic conditions for 30 days. From day 31, the rats were administered with the drugs for 8 weeks.
Since the herbal extract mixture (HMP) and Epalrestat (S11) used in the tests are insoluble in water, they were dissolved in 1% carboxymethylcellulose before use. The normal group was administered with carboxylmethylcellulose so as to eliminate an effect caused by carboxylmethylcellulose.
(§3) For the two diabetes-induced groups other than the normal group, each of 1 g/kg of the herbal extract mixture (HMP) and 25 mg/kg of Epalrestat (S11) was dissolved in 1% CMC and administered orally to the rats by a sonde daily for 8 weeks.
After administering the samples during the administration period, the test animals were fasted for at least 15 hours at one day before autopsy, and then measured for body weight.
The body weight was measured every day, the feed intake was measured one time a week, and the water intake was measured every day.

[3] = system: streptozotocin diabetes-induced SD rats; test: Streptozotocin diabetic rats: organ weight; assay type: in vivo, rat; settings: oral daily 8 weeks
Description: as §1, §2, §3
One day before autopsy, the test animals were fasted for at least 15 hours and then measured for body weight. Then, the animals were anesthetized with ethyl ether, from which blood was collected via the abdominal aorta. Some of the collected blood was treated with heparin, and some of whole blood was centrifuged at 3,000 rpm and 4° C. for 15 minutes. From each of the blood samples, plasma was isolated and stored at −80° C. before use in data analysis.
The kidneys of the animals were removed after washing by perfusion and measured for weight. Next, the kidneys were separated into cortex and medulla, which were rapidly cooled and stored at −80° C. In addition, the liver, lungs, pancreas, spleen and heart were separated and measured for weight.

[4] = system: streptozotocin diabetes-induced SD rats; test: Streptozotocin diabetic rats: biochemical factors in serum; assay type: in vivo, rat; settings: oral daily 8 weeks; for Glucose level: plasma
Description: as §1, §2, §3
At two-week intervals up to before autopsy, blood was taken from the orbital veins and measured for plasma glucose level with a glucose kit. The plasma glucose level was measured at 500 nm UV by a glucose oxidase method.
BUN was determined by measuring absorbance at 580 nm by a urease-indophenol method.
Triglyceride content was quantified by measuring absorbance at 550 nm by an enzymatic method (POD).
Total cholesterol level was determined by measuring absorbance at 500 nm by an enzymatic method.
Creatinine was determined by measuring absorbance at 515 nm by a modified Jaffe's method.
Protein in serum was determined by BCA assay. Serum was reacted with a bicinchonicic acid solution of bicinchonicic acid, Na2CO3, NaHCO3 and C4H4O6Na2.2H2O in 0.1N NaOH and a 4% CuSO4.5H2O solution and then measured for absorbance at 562 nm.

[5] = system: streptozotocin diabetes-induced SD rats; test: Streptozotocin diabetic rats: anti-cataract effect (eye lens opacity); assay type: in vivo, rat; settings: for Eye lens's opacity (%): mean
Description: as §1, §2, §3
From the eyeballs removed under a microscope, the eye lenses were separated and transferred onto 24-well plates each containing 2 ml of a saline solution. Then, the eye lenses were photographed with a digital camera. The opacity of the eye lenses was analyzed by the use of an imaging system program.
The eye lenses were photographed with a camera and measured for weight. Then, the eye lenses were placed in phosphate buffer (pH 6.9) and homogenized at 4° C. For use in the measurement of enzymatic activity, some of the homogenized solution was centrifuged at 3,000 rpm for 20 minutes, and the supernatant was collected and stored at −80° C. For use in the measurement of content of sorbitol, etc., the remaining homogenized solution was added with ZnSO4 and NaOH so as to remove protein, and centrifuged at 3,000 rpm for 20 minutes, and the supernatant was collected and stored at −80° C.
The results of visual observation for the eyeballs are shown in FIG. 9, and the results of camera observation for the eye lenses are shown in FIG. 10.

[6] = diabetes-induced rats, oral daily 8 weeks

C=CCc1ccc(O)c(-c2cc(CC=C)ccc2O)c1 [Magnolol, magnolol]
Inhibition (%) of production of advanced glycation endproducts ([1]; 3.33 μg/ml, cultured for 30 days): 36.36 ± 1.61%
Inhibition (%) of production of advanced glycation endproducts ([1]; 6.66 μg/ml, cultured for 30 days): 55.75 ± 2.11%
Inhibition (%) of production of advanced glycation endproducts ([1]; 13.32 μg/ml, cultured for 30 days): 77.05 ± 1.70%
Inhibition (%) of production of advanced glycation endproducts ([1]; 26.64 μg/ml, cultured for 30 days): 100%
IC50 (μg/ml), inhibition of production of advanced glycation endproducts ([1]; cultured for 30 days, 37° C.): 5.36 µg/mL

CC(/C=C1\SC(=S)N(CC(=O)O)C1=O)=C\c1ccccc1 [Epalrestat]
Body weight, early stage ([2]; oral daily 8 weeks (HMP 1 g/kg, S11 25 mg/kg), early stage): 154.03 ± 45.46 g
Body weight, end stage ([2]; oral daily 8 weeks (HMP 1 g/kg, S11 25 mg/kg), end stage): 283.24 ± 42.60 g
Heart absolute weight [3]: 0.95 ± 0.11 g
Heart relative weight (%) [3]: 0.34 ± 0.03 %
Kidneys absolute weight [3]: 3.18 ± 0.30 g
Kidneys relative weight (%) [3]: 1.14 ± 0.11 %
Liver absolute weight [3]: 11.63 ± 1.08 g
Liver relative weight (%) [3]: 4.15 ± 0.40 %
Lungs absolute weight [3]: 1.55 ± 0.13 g
Lungs relative weight (%) [3]: 0.55 ± 0.06 %
Pancreas absolute weight [3]: 0.86 ± 0.11 g
Pancreas relative weight (%) [3]: 0.31 ± 0.05 %
Spleen absolute weight [3]: 0.54 ± 0.09 g
Spleen relative weight (%) [3]: 0.19 ± 0.02%
BUN [4]: 23.60 ± 5.15 mg/dL
Creatinin [4]: 1.22 ± 0.16 mg/dL
Total cholesterol [4]: 59.50 ± 13.88 mg/dL
Triglyceride [4]: 46.18 ± 8.26 mg/dL
Glucose level [4]: 197.94 mg/dL
Glucose level ([4]; listed as S11): 197.94 ± 76.66 mg/dL
Protein ([4]; serum, BCA assay): 10.79 ± 0.85 µg/µL
Eye lens's opacity (20 pixels/m^2) [5, 6]: 134.04 ± 45.00 20 pixels/m^2
Eye lens's opacity (%) ([5]; diabetes-induced rats, oral daily 8 weeks, listed as S11): 37.38 ± 13.56 %

N=C(N)NN [Aminoguanidine, aminoguanidine]
Inhibition (%) of production of advanced glycation endproducts ([1]; bovine, 30 days, 27.5 μg/ml, pH 7.4): 45.78 ± 2.400%
Inhibition (%) of production of advanced glycation endproducts ([1]; bovine, 30 days, 55 μg/ml, pH 7.4): 55.43 ± 4.000%
Inhibition (%) of production of advanced glycation endproducts ([1]; bovine, 30 days, 110 μg/ml, pH 7.4): 73.52 ± 1.750%
Inhibition (%) of production of advanced glycation endproducts ([1]; bovine, 30 days, 550 μg/ml, pH 7.4): 96.41 ± 2.200%
IC50 (μg/ml), inhibition of production of advanced glycation endproducts ([1]; bovine, 30 days, pH 7.4): 34.90 µg/mL
Inhibition (%) of production of advanced glycation endproducts ([1]; bovine, 90 days, 27.5 μg/ml, pH 7.4): 39.647 ± 3.406%
Inhibition (%) of production of advanced glycation endproducts ([1]; bovine, 90 days, 110 μg/ml, pH 7.4): 65.714 ± 5.394%
IC50 (μg/ml), inhibition of production of advanced glycation endproducts ([1]; bovine, 90 days, pH 7.4): 30.80 µg/mL

CC(/C=C1\SC(=S)N(CC(=O)O)C1=O)=C\c1ccccc1 [Epalrestat (S11)]
Feed intake compared to diabetes-induced group ([2]; oral daily 8 weeks): more feed than that of the diabetes-induced group
Water intake compared to diabetes-induced group ([2]; oral daily 8 weeks): more water than that of the diabetes-induced group
Increase in body weight ([2]; oral daily 8 weeks (HMP 1 g/kg, S11 25 mg/kg)): 129.21 g
Eye lens's opacity (%) [5, 6]: 37.38±13.56%
Animals with cataract symptoms in both eyeballs on the day of autopsy ([5]; visual observation of eyeballs, FIG. 9): four of seven
